The values below come from ChEMBL document CHEMBL1158790, “Pseudopyronines A and B, alpha-pyrones produced by a marine Pseudomonas sp. F92S91, and evidence for the conversion of 4-hydroxy-alpha-pyrone to 3-furanone” (J Nat Prod, 2005).

The subject of the assay is Saccharomyces cerevisiae. The assay is described as follows: Antifungal activity against Saccharomyces cerevisiae. The format is functional, organism-based.

The source made the active and inactive calls. The calls are words filed in the database; no cut-off is given here.

On to `CCCCCCCC1=CC(=O)C(O)(CCCCCC)O1` (stereo unspecified), for which the outcome was inactive.
